Measurements as given in patent US20090209510A1, “Novel Method of Treating Hyperlipidemia” (TAKEDA PHARMACEUTICAL COMPANY LIMITED, priority 2005, published 2009).
Values belong to the molecule of their own block, whether it stands above or below them.

Columns and labels:
Wistar Fatty rats = test: Lowering effect on plasma triglyceride by use in combination of Compound X and atorvastatin (Example 1); type: in vivo, rat; settings: 30 mg/kg alone, orally once a day for 8 days, overnight fasting, average ± standard error (N = 6)
Hartley guinea pigs [1] = test: Lowering effect on plasma cholesterol by use in combination of Compound X and atorvastatin (Example 2); type: in vivo, guinea pig; settings: guinea pigs on 0.05% cholesterol/10% corn oil diet, orally once a day 14 days, average ± standard error (N = 12)
Hartley guinea pigs [2] = test: Influence of Compound X and atorvastatin on liver pathological change (Example 4); type: in vivo, guinea pig; settings: for Total cholesterol: guinea pigs on 0.05% cholesterol/10% corn oil diet, 30 mg/kg alone, orally once a day 14 days, average ± standard error (N = 12)
Description: Furthermore, the liver was removed and pathological evaluation was conducted.

Hartley guinea pigs [3] = test: Lowering effects on plasma cholesterol by use in combination of Compound X and simvastatin (Example 3); type: in vivo, guinea pig; settings: guinea pigs on 0.05% cholesterol/10% corn oil diet, orally once a day 14 days, average ± standard error (N = 12)
Hartley guinea pigs [4] = test: Influence of Compound X and cerivastatin on change of muscle-deviated enzymes (Example 6); type: in vivo, guinea pig; settings: for increases in the creatinine phosphokinase and myoglobin in plasma: cerivastatin 1 mg/kg alone or with Compound X 30 mg/kg
Hartley guinea pigs [5] = test: Lowering effect on plasma cholesterol by triple combination of Compound X, simvastatin and ezetimibe (Example 7); type: in vivo, guinea pig; settings: guinea pigs on 0.05% cholesterol/10% corn oil diet, Compound X 30 mg/kg alone, orally once a day 14 days; average ± standard error (N = 6)
Hartley guinea pigs [6] = settings: plasma, atorvastatin 50 mg/kg alone, orally once a day 7 days, average ± standard error (N = 12)
Description: On the morning of the following day after the 7th administration, blood was collected, and the concentrations of the alanine aminotransferase and the aspartate aminotransferase, which are the markers of hepatic toxicity, in plasma were measured.

[7] = plasma, cerivastatin 1 mg/kg alone, orally once a day 14 days, average ± standard error (N = 16)

Structure (SMILES): COc1cccc([C@H]2O[C@H](CC(=O)N3CCC(CC(=O)O)CC3)C(=O)N(CC(C)(C)COC(C)=O)c3ccc(Cl)cc32)c1OC [Compound X, N-[[(3R,5S)-1-(3-acetoxy-2,2-dimethylpropyl)-7-chloro-5-(2,3-dimethoxyphenyl)-2-oxo-1,2,3,5-tetrahydro-4,1-benzoxazepin-3-yl]acetyl]piperidine-4-acetic acid]
Plasma triglyceride value (Wistar Fatty rats): 376.5 ± 22.0 mg/dL
Total cholesterol level (Hartley guinea pigs [1]; 30 mg/kg alone): 44.4 ± 4.1 mg/dL
Total cholesterol (Hartley guinea pigs [2]): 40.1 ± 3.1 mg/dL
Image of the liver cell necrosis (Hartley guinea pigs [2]; guinea pigs, each drug 30 mg/kg, alone or in combination, 14 days): not recognized
Total cholesterol level (Hartley guinea pigs [3]; 30 mg/kg alone): 40.2 ± 4.7 mg/dL
cholesterol-lowering effect (Hartley guinea pigs [4]; Compound X 30 mg/kg added to cerivastatin 1 mg/kg, 14 days): slightly increasing
increases in the creatinine phosphokinase and myoglobin in plasma (Hartley guinea pigs [4]; 14 days): significantly ameliorated the increases
Total cholesterol level (Hartley guinea pigs [5]): 43.5 ± 4.1 mg/dL

Structure (SMILES): CCC(C)(C)C(=O)O[C@H]1C[C@@H](C)C=C2C=C[C@H](C)[C@H](CC[C@@H]3C[C@@H](O)CC(=O)O3)[C@H]21 [Simvastatin, simvastatin]
Total cholesterol level (Hartley guinea pigs [3]; 10 mg/kg alone): 41.0 ± 3.6 mg/dL
Total cholesterol level (Hartley guinea pigs [3]; 30 mg/kg alone): 43.4 ± 2.2 mg/dL
Total cholesterol level (Hartley guinea pigs [3]; 100 mg/kg alone): 31.7 ± 2.6 mg/dL

increases in the creatinine phosphokinase and myoglobin in plasma (Hartley guinea pigs [4]; 14 days): Significant increases
CK (creatinine phosphokinase) (Hartley guinea pigs [4]; [7]): 4070 ± 800 U/L
Mb (myoglobin) (Hartley guinea pigs [4]; [7]): 25.7 ± 2.6 ng/mL
Structure (SMILES): COCc1c(C(C)C)nc(C(C)C)c(/C=C/[C@@H](O)C[C@@H](O)CC(=O)O)c1-c1ccc(F)cc1 [Cerivastatin, cerivastatin]
TC (Hartley guinea pigs [4]; cerivastatin 1 mg/kg alone, orally once a day 14 days, average ± standard error (N = 16)): 13.2 ± 0.8 mg/dL

Alanine aminotransferase (Hartley guinea pigs [6]): 48.9 ± 9.7 I.U./L
Aspartate aminotransferase (Hartley guinea pigs [6]): 169.0 ± 39.1 I.U./L
Structure (SMILES): CC(C)c1c(C(=O)Nc2ccccc2)c(-c2ccccc2)c(-c2ccc(F)cc2)n1CC[C@@H](O)C[C@@H](O)CC(=O)O [Atorvastatin, atorvastatin]
Total cholesterol level (Hartley guinea pigs [1]; 3 mg/kg alone): 46.1 ± 3.3 mg/dL
Total cholesterol level (Hartley guinea pigs [1]; 10 mg/kg alone): 37.4 ± 4.1 mg/dL
Total cholesterol level (Hartley guinea pigs [1]; 30 mg/kg alone): 33.5 ± 2.8 mg/dL
Total cholesterol (Hartley guinea pigs [2]): 32.9 ± 1.5 mg/dL
